Assays:
[1] = In vitro dissolution of capsules, USP Type 1 (Basket) apparatus, 900 mL medium, 100 rpm; assay type: physicochemical
Method: Dissolution profiles for drugs in capsules prepared above are determined in various media using the USP procedure and the following conditions: Type 1 (Basket) apparatus; 900 mL medium; and 100 rpm rotation. Values in the following tables are cumulative percentages of the specified drug that dissolves in the specified times. […]

[2] = Storage stability of capsules in closed HDPE bottles at 40° C. and 75% relative humidity for 6 months: drug content and drug-related impurities; assay type: physicochemical
Method: Capsules prepared above are stored in closed high-density polyethylene (HDPE) bottles at 40° C. and 75% relative humidity for 6 months, and are analyzed for drug content and the levels of drug-related impurity formation.
Capsules prepared above are stored in closed HDPE bottles at 40° C. and 75% relative humidity for 6 months, and are analyzed for drug content and the levels of drug-related impurities.

[3] = Example 3 capsule, 0.1N HCl, 30 Minutes
[4] = Example 3 capsule, 0.1N HCl, 60 Minutes
[5] = Example 3 capsule, pH 2.1 SGF, 30 Minutes
[6] = Example 3 capsule, pH 2.1 SGF, 60 Minutes
[7] = Example 3 capsule, pH 4.5 Acetate buffer USP, 30 Minutes
[8] = Example 3 capsule, pH 4.5 Acetate buffer USP, 60 Minutes
[9] = Example 4 capsule, 0.1N HCl, 30 Minutes
[10] = Example 4 capsule, 0.1N HCl, 60 Minutes
[11] = Example 4 capsule, pH 2.1 SGF, 30 Minutes
[12] = Example 4 capsule, pH 2.1 SGF, 60 Minutes
[13] = Example 4 capsule, pH 4.5 Acetate buffer USP, 30 Minutes
[14] = Example 4 capsule, pH 4.5 Acetate buffer USP, 60 Minutes
[15] = Example 3 capsule, 6 Months at 40° C. and 75% relative humidity, closed HDPE bottles
[16] = Example 3 capsule, 6 Months, 40° C./75% RH
[17] = Example 4 capsule, 6 Months at 40° C. and 75% relative humidity, closed HDPE bottles
[18] = Example 4 capsule, 6 Months, 40° C./75% RH, capsule containing hydrochlorothiazide
[19] = Example 4 capsule, Initial, capsule containing hydrochlorothiazide
[20] = Example 4 capsule, pH 6.8 Phosphate buffer USP, 30 Minutes
[21] = Example 4 capsule, pH 6.8 Phosphate buffer USP, 60 Minutes
[22] = Example 4 capsule, 6 Months, 40° C./75% RH

Structure (SMILES)	cumulative percentage of drug dissolved [1, 3]	cumulative percentage of drug dissolved [1, 4]	cumulative percentage of drug dissolved [1, 5]	cumulative percentage of drug dissolved [1, 6]	cumulative percentage of drug dissolved [1, 7]	cumulative percentage of drug dissolved [1, 8]	cumulative percentage of drug dissolved [1, 9]	cumulative percentage of drug dissolved [1, 10]	cumulative percentage of drug dissolved [1, 11]	cumulative percentage of drug dissolved [1, 12]	cumulative percentage of drug dissolved [1, 13]	cumulative percentage of drug dissolved [1, 14]	Assay (drug content) [2, 15]	Assay (drug content) ([2]; Example 3 capsule, Initial)	Assay (drug content) [2, 17]	Assay (drug content) ([2]; Example 4 capsule, Initial)	cumulative percentage of drug dissolved [1, 20]	cumulative percentage of drug dissolved [1, 21]	other results
CC(=O)Oc1ccccc1C(=O)O [Aspirin]	96%	98%	99%	100%	88%	89%	96%	98%	99%	100%	88%	89%	101.5 % of label content	100.3 % of label content	101.3 % of label content	101.2 % of label content			cumulative percentage of drug dissolved ([1]; Example 3 capsule, 0.01N HCl, 30 Minutes): 87%; cumulative percentage of drug dissolved ([1]; Example 3 capsule, 0.01N HCl, 60 Minutes): 89%; cumulative percentage of drug dissolved ([1]; Example 4 capsule, 0.01N HCl, 30 Minutes): 87%; cumulative percentage of drug dissolved ([1]; Example 4 capsule, 0.01N HCl, 60 Minutes): 89%; Impurity: Salicylic acid [2, 16]: 0.68 % of label content; Impurity: Salicylic acid ([2]; Example 3 capsule, Initial): 0.17 % of label content; Impurity: Salicylic acid [2, 18]: 0.31 % of label content; Impurity: Salicylic acid [2, 19]: 0.13 % of label content
CC(C)NCC(O)COc1ccc(CC(N)=O)cc1 (stereo not drawn) [Atenolol]													98.7 % of label content	100.3 % of label content					
NS(=O)(=O)c1cc2c(cc1Cl)NCNS2(=O)=O [Hydrochlorothiazide]							100%	100%	88%	98%	91%	97%			99.3 % of label content	99.5 % of label content	82%	85%	Impurity: CTZ [2, 22]: 0.04 % of label content; Impurity: DSA [2, 22]: 0.07 % of label content; Impurity: CTZ ([2]; Example 4 capsule, Initial): 0.04 % of label content; Impurity: DSA ([2]; Example 4 capsule, Initial): 0.04 % of label content
NCCCC[C@H](N[C@@H](CCc1ccccc1)C(=O)O)C(=O)N1CCC[C@H]1C(=O)O [Lisinopril]	97%	96%	102%	105%	97%	96%	100%	100%	95%	98%	100%	102%	98.7 % of label content	98.5 % of label content	99.0 % of label content	97.8 % of label content	94%	95%	cumulative percentage of drug dissolved ([1]; Example 3 capsule, pH 6.5 SIF, 30 Minutes): 92%; cumulative percentage of drug dissolved ([1]; Example 3 capsule, pH 6.5 SIF, 60 Minutes): 97%; cumulative percentage of drug dissolved ([1]; Example 3 capsule, pH 6.8 Phosphate buffer USP, 30 Minutes): 96%; cumulative percentage of drug dissolved ([1]; Example 3 capsule, pH 6.8 Phosphate buffer USP, 60 Minutes): 96%; Impurity: RSS isomer [2, 16]: 0.12 % of label content; Impurity: SSS DKP [2, 16]: 0.009 % of label content; Impurity: RSS isomer ([2]; Example 3 capsule, Initial): 0.09 % of label content; Impurity: RSS isomer [2, 18]: 0.09 % of label content; Impurity: SSS DKP [2, 18]: 0.33 % of label content; Impurity: RSS isomer [2, 19]: 0.09 % of label content; Impurity: SSS DKP [2, 19]: 0.05 % of label content

From patent US20120045505A1, “FIXED DOSE DRUG COMBINATION FORMULATIONS” (Dr. Reddy's Laboratories, Inc., priority 2004, published 2012)
